Like-named read-outs stand apart in the source and are kept apart here.
Assays:
[1] = tested on: PHH; parameters: method as in PMID 32318794; conditions: cited from earlier work
[2] = tested on: p53 pathway activation (p53-GFP, p21-GFP, BTG2-GFP HepG2 reporters); assay type: cell-based; conditions: for DDR (p21 and p53 activation): 3D, 4-day repeated dosing
Description: (§1) The HepG2 BAC-GFP reporters for human BTG2, p21 and p53 were generated previously and used to monitor the DDR ([14],[18]). Cells were maintained in DMEM high glucose (Gibco) supplemented with 10% (v/v) fetal bovine serum (FBS), 25 U/ml penicillin and 25 µg/ml streptomycin (referred to as normal DMEM medium) at 37°C and 5% CO2. The reporter cells were tested between passages 19–21 throughout the data presented (Supplementary Figure 1, available at Mutagenesis Online).
(§2) Two different compound exposure scenarios were performed: a single exposure in 2D and a 4-day repeated exposure in 3D. A schematic overview of the tested exposure scenarios for each HepG2 model has been depicted in Figure 1. For the single exposure scenario in 2D, medium was replaced by freshly diluted compound in medium 24 h post seeding. DDRs were monitored after 24, 48 and 72 h by live cell confocal imaging (Figure 1A and B). For the 4-day repeated exposure scenario in 3D, each day medium was replaced by freshly diluted compound in medium for four consecutive days (Figure 1C and D). The imaging was started 24 h after the last exposure. For both scenarios, five compounds in eight concentrations were tested. DMSO, PBS or ultrapure H2O were used as solvent controls. The ATP-lite luminescence kit (Perkin Elmer) was used according to supplier’s protocol to measure cell viability. Measurements were performed 72 h or 24 h post single or repeated exposure, respectively. Absolute IC50 values have been calculated over the ATP-lite data by determining the intersect of the fitted concentration–response curve with the 50% viability baseline via GraphPad prism 8.1.1.
(§3) Prior to imaging, cells were stained with Hoechst 33342 at a concentration of 0.1 µg/ml to visualise the nuclei. To examine compound-induced cell death using confocal microscopy, propidium iodide (PI) was added during all compound exposures at a concentration of 100 µM to stain for necrotic or late apoptotic cells. The induction of GFP intensities and PI were monitored with a Nikon Eclipse Ti confocal laser microscope (Nikon, Amsterdam, The Netherlands), equipped with lasers at wavelengths 408, 488 and 561, an automated stage and perfect focus system at 37°C and 5% CO2. Images for 2D cultures were acquired with a Nikon 20x Dry Plan Apo VC NA 0.75 objective. Images for 3D cultures were acquired with a Nikon 10x Dry Plan Fluor NA 0.3 objective. For each condition, a z-stack of 9–11 images was generated with a step size of 30 µm.
(§4) For 2D cultures, image quantification was performed with Cell Profiler version 2.2.0 (Broad Institute, Cambridge, USA) using modules described previously ([14]). Nuclei segmentation based on Hoechst was done in ImageJ using an in-house developed macro based on the watershed masked clustering algorithm ([27]). Segmentation of the cytoplasmic area was done using the Distance N method expanding the edges of nuclear objects with six pixels followed by subtraction of the nuclear area. p21 and p53-GFP intensities were measured in the nuclei and BTG2-GFP in the cytoplasm. The PI-positive cells were identified by an overlay of the PI signal and the segmented nuclei. A cell was considered positive when there was at least 10% overlap. Results were stored in HDF5 format ([28]). To extract summarised data for further analysis and visualisation, in-house developed R-scripts were used in RStudio (version 1.0.153) (Boston, MA, USA) ([29–31]). The mean nuclear and cytoplasmic intensities of all measured single cells and the fraction of PI-positive cells for each image were extracted as output from the HDF5 files.
(§5) For 3D cultures, the NIS Elements analysis software (Nikon, Amsterdam, The Netherlands) was used to quantify the GFP intensity and PI-positive area within spheroids.

[3] = tested on: p53-GFP HepG2 reporter; experiment: p53-GFP reporter activation, live cell confocal imaging; assay type: cell-based, human; conditions: 2D, normal DMEM medium
Description: as §1
Two different compound exposure scenarios were performed: a single exposure in 2D and a 4-day repeated exposure in 3D. A schematic overview of the tested exposure scenarios for each HepG2 model has been depicted in Figure 1. For the single exposure scenario in 2D, medium was replaced by freshly diluted compound in medium 24 h post seeding. DDRs were monitored after 24, 48 and 72 h by live cell confocal imaging (Figure 1A and B). […] The ATP-lite luminescence kit (Perkin Elmer) was used according to supplier’s protocol to measure cell viability. […]
Prior to imaging, cells were stained with Hoechst 33342 at a concentration of 0.1 µg/ml to visualise the nuclei. […] The induction of GFP intensities and PI were monitored with a Nikon Eclipse Ti confocal laser microscope (Nikon, Amsterdam, The Netherlands), equipped with lasers at wavelengths 408, 488 and 561, an automated stage and perfect focus system at 37°C and 5% CO2. […]

[4] = tested on: BTG2-GFP HepG2 reporter; assay type: cell-based
Description: as §1, §2, §3, §4, §5

Molecule: N.N.[Cl][Pt][Cl] [Cisplatin]
- PoD (CometChip) [1]: 6.3 µM
- DDR detection (PoD) ([2]; 2D culturing, AAGLY medium): could not be detected
- concentration giving clear reporter activation ([2]; AAGLY medium or 3D culture): ≥ 10 µM
- PoD of reporter activation ([2]; HepG2 2D, normal DMEM medium): 0.32 to 1.83 µM
- concentration giving clear concentration-dependent reporter activation ([2]; all DNA damage reporters, 2D, normal DMEM medium): ≥ 0.46 µM

Molecule: Cc1c(-c2ccc(-c3ccccc3F)cc2)nc2ccc(F)cc2c1C(=O)O [Brequinar]
- maximal p53 induction compared to other reporters [3]: ~ 3 fold
- DDR (p21 and p53 activation) ([2]; AAGLY medium): induced a DDR (p21 and p53 activation) at the highest concentration
- DDR (p21 and p53 activation) ([2]; normal DMEM medium): not seen
- DDR ([2]; 24 h after exposure): no DDR was observed
- BTG2-GFP response across culture conditions ([4]; four culture conditions): only induced BTG2-GFP responses in the proliferating HepG2 cultured in 2D in normal DMEM medium

Molecule: Nc1ccn([C@@H]2O[C@H](CO)[C@@H](O)C2(F)F)c(=O)n1 [Gemcitabine]
- PoD of reporter activation [2]: did not induce a quantifiable genotoxic effect
- genotoxic effects (reporter activation) [2]: almost absent
- PoD of reporter activation ([2]; human): ≤ 0.028 µM
- BTG2-GFP response across culture conditions ([4]; human): only induced BTG2-GFP responses in the proliferating HepG2 cultured in 2D in normal DMEM medium

Molecule: Aflatoxin B1
- concentration at which reporter induction was already observed [2]: 0.1 µM
- induction of DNA damage reporters [2]: induced DNA damage reporters (BTG2, p21 and p53) in all culture conditions
- reporter induction [2]: ≤ 4.5 fold
- concentration of peak BTG2-GFP induction [4]: 10 µM

Reference: PMC9071099, “Towards an advanced testing strategy for genotoxicity using image-based 2D and 3D HepG2 DNA damage response fluorescent protein reporters” (Mutagenesis, 2021)
